Experiments:
peroxidase = experiment: Labelling (photocrosslinking) of protein by UV irradiation, gel electrophoresis, fluorescence intensity; type: binding; conditions: 5 minutes after UV irradiation, about 254 nm; FIG. 1c
Method: (§1) Proteins of BSA, HSA, peroxidase, and lysozyme are treated with the compounds synthesized or purchased in Example 1, and irradiated with UV at about 254 nm. Then, binding of the compound and the protein over UV irradiation time is examined by gel electrophoresis. A gel electrophoresis apparatus (Bio-Rad) and a small vertical gel electrophoresis apparatus are connected and used for gel electrophoresis. For experiment, a 12% SDS gel and a running buffer are directly prepared as follows and used. 12% SDS gel is prepared by mixing 7.9 ml of H2O, 6.5 ml of pH […] Tris-HCl buffer, 10 ml of 30% Acryl amide, 250 μl of 10% SDS gel, 250 μl of APS, and 10 μl of TMEDE. 1× running buffer is prepared by mixing 200 ml of 10×TGS buffer and 1800 ml of H2O.
(§2) Proteins of BSA, HAS, peroxidase, and lysozyme are purchased from Sigma Aldrich. Fluorescence intensity of the labeled protein is measured using BIO-RAD ChemiDoc, and Blue Epi and Green Epi are used as a light source, and 530 nm emission (28 nm bandwidth) and 650 nm emission (50 nm bandwidth) filters are used according to fluorescence wavelength.
(§3) Y axis of FIGS. 1a through 1d represents fluorescence intensity, indicating photocrosslinking degree of the compound and protein.

HSA = molecular target: T1, HSA (Homo sapiens, UniProt P02768); experiment: as above; type: binding; conditions: 5 minutes after UV irradiation, about 254 nm; FIG. 1b
T1 construct: purchased Sigma Aldrich
Method: as §1, §2, §3

[1] = Maximum values of absorbance and fluorescence of the compounds in DMSO; type: physicochemical
Method: Experimental device, analyzer and reagents used in Examples and comparative experiments are the same as follows. FT-NMR spectroscopy is performed using Bruker Avance 400, and LC/MS analysis is performed using Thermo Dionex ultimate 3000/Velos pro on ion-trap mass spectrometer (ITMS). All reagents purchased from Aldrich are used without additional purification. Whatman filter papers having a diameter of 125 mm are used. Of derivatives used in experiments, 2-(2-Aminophenyl)-1H-benzimidazole) (ABI) is purchased from Aldrich, and NMR analysis and fluorescence/absorbance values are recorded by the method known in the art. […]

lysozyme = molecular target: T2, lysozyme (Gallus gallus, UniProt P00698); experiment: Labelling (photocrosslinking) of protein by UV irradiation, gel electrophoresis, fluorescence intensity; type: binding; conditions: 5 minutes after UV irradiation, about 254 nm; FIG. 1d
T2 construct: purchased Sigma Aldrich
Method: as §1, §2, §3

BSA = molecular target: T3, BSA (Bos taurus, UniProt P02769); experiment: as above; type: binding; conditions: 5 minutes after UV irradiation, about 254 nm; FIG. 1a
T3 construct: purchased Sigma Aldrich
Method: as §1, §2, §3

[2] = system: BSA, HSA, peroxidase, and lysozyme; experiment: Protein labelling, results of FIGS. 1a to 1d taken together; type: binding
Method: as §1, §2
Y axis of FIGS. 1a through 1d represents fluorescence intensity, indicating photocrosslinking degree of the compound and protein. […]

T3 sequence (P02769 25-607): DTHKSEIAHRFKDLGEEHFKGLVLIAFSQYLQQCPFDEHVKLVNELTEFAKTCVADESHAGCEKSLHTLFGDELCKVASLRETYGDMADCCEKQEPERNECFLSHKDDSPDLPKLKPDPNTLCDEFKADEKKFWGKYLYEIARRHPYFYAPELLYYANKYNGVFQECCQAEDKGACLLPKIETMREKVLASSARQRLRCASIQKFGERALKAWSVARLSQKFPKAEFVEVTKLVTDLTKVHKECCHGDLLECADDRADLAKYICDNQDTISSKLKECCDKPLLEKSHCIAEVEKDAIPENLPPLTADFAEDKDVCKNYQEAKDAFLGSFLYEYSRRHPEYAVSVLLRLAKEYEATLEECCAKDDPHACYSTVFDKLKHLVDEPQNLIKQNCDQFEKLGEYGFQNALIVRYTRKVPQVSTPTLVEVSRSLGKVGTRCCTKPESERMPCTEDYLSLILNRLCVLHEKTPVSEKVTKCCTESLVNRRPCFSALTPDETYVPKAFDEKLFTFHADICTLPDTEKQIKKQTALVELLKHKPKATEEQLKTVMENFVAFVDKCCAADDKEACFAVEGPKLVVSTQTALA
T1 sequence (P02768 25-609): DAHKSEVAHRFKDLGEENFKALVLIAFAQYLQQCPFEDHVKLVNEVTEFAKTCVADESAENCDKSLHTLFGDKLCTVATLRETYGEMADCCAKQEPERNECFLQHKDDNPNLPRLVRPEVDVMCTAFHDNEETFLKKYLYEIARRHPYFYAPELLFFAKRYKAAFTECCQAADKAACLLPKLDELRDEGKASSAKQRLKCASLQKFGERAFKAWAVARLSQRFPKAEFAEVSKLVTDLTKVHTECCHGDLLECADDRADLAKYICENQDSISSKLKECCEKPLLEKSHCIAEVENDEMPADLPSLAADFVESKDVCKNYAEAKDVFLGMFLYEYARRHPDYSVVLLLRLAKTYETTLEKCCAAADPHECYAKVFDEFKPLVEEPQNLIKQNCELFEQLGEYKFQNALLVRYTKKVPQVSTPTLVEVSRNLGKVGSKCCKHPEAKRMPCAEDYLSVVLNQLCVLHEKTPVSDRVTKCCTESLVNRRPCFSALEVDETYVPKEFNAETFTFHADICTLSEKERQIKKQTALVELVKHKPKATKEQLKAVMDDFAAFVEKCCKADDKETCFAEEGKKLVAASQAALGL
T2 sequence (P00698 19-147): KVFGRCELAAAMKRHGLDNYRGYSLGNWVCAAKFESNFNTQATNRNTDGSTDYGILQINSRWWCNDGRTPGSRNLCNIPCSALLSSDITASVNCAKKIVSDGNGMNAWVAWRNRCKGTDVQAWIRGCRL

| Compound | Labeling of peroxidase (fluorescence intensity, photocrosslinking degree) (peroxidase) | Labeling of HSA (fluorescence intensity, photocrosslinking degree) (HSA) | Absorbance (maximum value) [1] | Fluorescence (maximum value) [1] | Labeling of lysozyme (fluorescence intensity, photocrosslinking degree) (lysozyme) | Labeling of BSA (fluorescence intensity, photocrosslinking degree) (BSA) | Photocrosslinking property, comparison among the compounds [2] |
| --- | --- | --- | --- | --- | --- | --- | --- |
| Nc1ccccc1-c1nc2ccccc2[nH]1 [ABI, 2-(2-Aminophenyl)-1H-benzimidazole] | significant labeling | significant labeling | 360 nm | 415 nm | – | – | – |
| Oc1ccccc1-c1nc2ccccc2[nH]1 [HBI, 2-(2-hydroxyphenyl)benzimidazole] | significant labeling | significant labeling | 320 nm | 463 nm | significant labeling | significant labeling | highest photocrosslinking property |
| Oc1ccccc1-c1nc2ccccc2o1 [HBO, 2-(2-hydroxyphenyl)benzoxazole] | – | – | 380 nm | 480 nm | – | significant labeling | – |
| Oc1ccccc1-c1nc2ccccc2s1 [HBT, 2-(2-hydroxyphenyl)benzothiazole] | – | – | 350 nm | 515 nm | – | – | – |
| CCN(CC)c1ccc2nc(-c3ccccc3O)[nH]c2c1 [HDBI, 2-(2-hydroxyphenyl)-5-(diethylamino)benzimidazole] | significant labeling | significant labeling | 360 nm | 448 nm | significant labeling | significant labeling | – |

— patent publication US9822164B2, “Labelling agent, and composition for labelling a protein, method for labelling a protein, and method for detecting a protein” (KOREA INSTITUTE OF SCIENCE AND TECHNOLOGY, priority 2014, dated 2017)
